Literature values in patent US9125411B2, “UV absorbers for reducing the E/Z isomerization of pesticides” (BASF SE, priority 2010, dated 2015).

In the case of metaflumizone, the “pesticidal activity of the E isomer relative to the Z isomer” value (E isomer higher than Z isomer) is listed as “up to 10 fold” and the “change of activity by irradiation by light” value (Takagi et al., Veterinary Parasitology, 2007) is listed as “loses activity”.
